Results reported in ChEMBL document CHEMBL1201862, “PubChem BioAssay data set” (2004).
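Growth conditions: 96-well plates. Treatment: test compound, 48 hours, 5 concentrations. Analysis: linear interpolation between bracketing concentrations; unreached endpoints set to highest concentration. The concentration for 50% growth inhibition is given as GI50.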 The source made the active and inactive calls. Cut-off read from the data, not from the text of the source: active = GI50 up to about 1.1 µM and inactive = higher.

Tests used:
Assay in all cases: NCI-60 cell line screen, 48 h
[1] = test system: UO-31
[2] = test system: TK-10
[3] = test system: CCRF-CEM
[4] = test system: 786-0
[5] = test system: SF-268
[6] = test system: HOP-62
[7] = test system: HCT-116
[8] = test system: OVCAR-8
[9] = test system: ACHN
[10] = test system: T47D
[11] = test system: A549
[12] = test system: UACC-257
[13] = test system: COLO 205
[14] = test system: EKVX
[15] = test system: OVCAR-3
[16] = test system: UACC-62
[17] = test system: KM12
[18] = test system: SNB-75
[19] = test system: SK-MEL-28
[20] = test system: SK-OV-3
[21] = test system: MOLT-4
[22] = test system: IGROV-1
[23] = test system: SNB-19
[24] = test system: DU-145
[25] = test system: HCT-15
[26] = test system: SW-620
[27] = test system: SK-MEL-5
[28] = test system: HCC 2998
[29] = test system: NCI/ADR-RES
[30] = test system: RXF 393
[31] = test system: HL-60
[32] = test system: NCI-H226
[33] = test system: BT-549
[34] = test system: NCI-H522
[35] = test system: Hs-578T
[36] = test system: NCI-H460
[37] = test system: A498
[38] = test system: U-251
[39] = test system: LOX IMVI
[40] = test system: SF-539
[41] = test system: MDA-N
[42] = test system: MDA-MB-435
[43] = test system: SN12C
[44] = test system: SF-295
[45] = test system: HT-29
[46] = test system: OVCAR-4
[47] = test system: NCI-H23
[48] = test system: CAKI-1
[49] = test system: MCF7
[50] = test system: M14
[51] = test system: SK-MEL-2
[52] = test system: PC-3
[53] = test system: Malme-3M
[54] = test system: HOP-92
[55] = test system: SR
[56] = test system: K562
[57] = test system: RPMI-8226
[58] = test system: MDA-MB-231
[59] = test system: OVCAR-5

**Q.** `NCC(=O)Nc1ccc(Cl)cc1C(=O)c1ccc[nH]1` was tested. Which GI50 [1] did it give?
**A.** 21.7 µM (inactive)

**Q.** What about the GI50 [2] of the same molecule?
**A.** > 94.6 µM (inactive)

**Q.** What about the GI50 [3] of the same molecule?
**A.** 3.42 µM (inactive)

**Q.** What about the GI50 [4] of the same molecule?
**A.** > 83.4 µM (inactive)

**Q.** What about the GI50 [5] of the same molecule?
**A.** 49 µM (inactive)

**Q.** What about the GI50 [6] of the same molecule?
**A.** > 94.2 µM (inactive)

**Q.** What about the GI50 [7] of the same molecule?
**A.** 7.64 µM (inactive)

**Q.** What about the GI50 [8] of the same molecule?
**A.** > 56.8 µM (inactive)

**Q.** And the GI50 [9]?
**A.** > 74 µM (inactive)

**Q.** What about the GI50 [10] of the same molecule?
**A.** 54.1 µM (inactive)

**Q.** And the GI50 [11]?
**A.** 63.1 µM (inactive)

**Q.** And the GI50 [12]?
**A.** > 100 µM (inactive)

**Q.** What about the GI50 [13] of the same molecule?
**A.** > 86.1 µM (inactive)

**Q.** What about the GI50 [14] of the same molecule?
**A.** > 100 µM (inactive)

**Q.** And the GI50 [15]?
**A.** 40.9 µM (inactive)

**Q.** What about the GI50 [16] of the same molecule?
**A.** > 68.5 µM (inactive)

**Q.** What about the GI50 [17] of the same molecule?
**A.** 34 µM (inactive)

**Q.** What about the GI50 [18] of the same molecule?
**A.** 38.5 µM (inactive)

**Q.** What about the GI50 [19] of the same molecule?
**A.** > 93.5 µM (inactive)

**Q.** And the GI50 [20]?
**A.** > 100 µM (inactive)

**Q.** What about the GI50 [21] of the same molecule?
**A.** 35.8 µM (inactive)

**Q.** And the GI50 [22]?
**A.** > 48.4 µM (inactive)

**Q.** What about the GI50 [23] of the same molecule?
**A.** > 100 µM (inactive)

**Q.** What about the GI50 [24] of the same molecule?
**A.** > 100 µM (inactive)

**Q.** And the GI50 [25]?
**A.** 38.5 µM

**Q.** And the GI50 [26]?
**A.** 13.6 µM (inactive)

**Q.** What about the GI50 [27] of the same molecule?
**A.** 49 µM (inactive)

**Q.** And the GI50 [28]?
**A.** 31.8 µM (inactive)

**Q.** What about the GI50 [29] of the same molecule?
**A.** 49 µM (inactive)

**Q.** And the GI50 [30]?
**A.** > 82.2 µM (inactive)

**Q.** And the GI50 [31]?
**A.** 15.1 µM (inactive)

**Q.** What about the GI50 [32] of the same molecule?
**A.** 46.3 µM (inactive)

**Q.** What about the GI50 [33] of the same molecule?
**A.** 70.3 µM (inactive)

**Q.** And the GI50 [34]?
**A.** 11.5 µM (inactive)

**Q.** And the GI50 [35]?
**A.** > 67.5 µM (inactive)

**Q.** And the GI50 [36]?
**A.** 10.4 µM (inactive)

**Q.** And the GI50 [37]?
**A.** > 63.1 µM (inactive)

**Q.** What about the GI50 [38] of the same molecule?
**A.** 15.2 µM (inactive)

**Q.** And the GI50 [39]?
**A.** 9.95 µM (inactive)

**Q.** What about the GI50 [40] of the same molecule?
**A.** > 32.8 µM (inactive)

**Q.** And the GI50 [41]?
**A.** 23.4 µM (inactive)

**Q.** And the GI50 [42]?
**A.** 45.2 µM (inactive)

**Q.** And the GI50 [43]?
**A.** > 36.3 µM (inactive)

**Q.** And the GI50 [44]?
**A.** > 100 µM (inactive)

**Q.** And the GI50 [45]?
**A.** 25.5 µM (inactive)

**Q.** And the GI50 [46]?
**A.** 21.7 µM (inactive)

**Q.** And the GI50 [47]?
**A.** 14.3 µM (inactive)

**Q.** And the GI50 [48]?
**A.** 78 µM (inactive)

**Q.** What about the GI50 [49] of the same molecule?
**A.** 6.31 µM (inactive)

**Q.** What about the GI50 [50] of the same molecule?
**A.** 99.3 µM (inactive)

**Q.** What about the GI50 [51] of the same molecule?
**A.** 61.1 µM (inactive)

**Q.** And the GI50 [52]?
**A.** 25.9 µM (inactive)

**Q.** What about the GI50 [53] of the same molecule?
**A.** > 56.4 µM (inactive)

**Q.** And the GI50 [54]?
**A.** 15.4 µM (inactive)

**Q.** What about the GI50 [55] of the same molecule?
**A.** 8.99 µM (inactive)

**Q.** What about the GI50 [56] of the same molecule?
**A.** 10.5 µM (inactive)

**Q.** And the GI50 [57]?
**A.** 5.57 µM (inactive)

**Q.** And the GI50 [58]?
**A.** > 51.1 µM (inactive)

**Q.** And the GI50 [59]?
**A.** 55.6 µM (inactive)

**Q.** With `COc1ccc(\N=C/C=C/C(=C/COC(C)=O)OC(C)=O)cc1` as the molecule, how does the GI50 [2] read?
**A.** 37.2 µM (inactive)

**Q.** What about the GI50 [3] of the same molecule?
**A.** 4.56 µM (inactive)

**Q.** And the GI50 [4]?
**A.** 23 µM (inactive)

**Q.** What about the GI50 [5] of the same molecule?
**A.** 31 µM (inactive)

**Q.** What about the GI50 [6] of the same molecule?
**A.** 51.4 µM (inactive)

**Q.** And the GI50 [7]?
**A.** 5.53 µM (inactive)

**Q.** What about the GI50 [8] of the same molecule?
**A.** 14.4 µM (inactive)

**Q.** What about the GI50 [9] of the same molecule?
**A.** 17.3 µM (inactive)

**Q.** And the GI50 [10]?
**A.** 72.9 µM (inactive)

**Q.** And the GI50 [11]?
**A.** 90.6 µM (inactive)

**Q.** And the GI50 [12]?
**A.** 27.4 µM (inactive)

**Q.** And the GI50 [13]?
**A.** 25.4 µM (inactive)

**Q.** And the GI50 [14]?
**A.** 51.8 µM (inactive)

**Q.** What about the GI50 [15] of the same molecule?
**A.** 20.7 µM (inactive)

**Q.** And the GI50 [16]?
**A.** 37.1 µM (inactive)

**Q.** What about the GI50 [17] of the same molecule?
**A.** 28.6 µM (inactive)

**Q.** What about the GI50 [18] of the same molecule?
**A.** > 100 µM (inactive)

**Q.** What about the GI50 [19] of the same molecule?
**A.** 26.9 µM (inactive)

**Q.** What about the GI50 [20] of the same molecule?
**A.** 91.2 µM (inactive)

**Q.** What about the GI50 [21] of the same molecule?
**A.** 68.1 µM (inactive)

**Q.** And the GI50 [22]?
**A.** 21.1 µM (inactive)

**Q.** What about the GI50 [23] of the same molecule?
**A.** 58.6 µM (inactive)

**Q.** And the GI50 [24]?
**A.** 39.4 µM (inactive)

**Q.** What about the GI50 [25] of the same molecule?
**A.** 36.6 µM

**Q.** And the GI50 [26]?
**A.** 10.2 µM (inactive)

**Q.** What about the GI50 [27] of the same molecule?
**A.** 29 µM (inactive)

**Q.** And the GI50 [28]?
**A.** > 100 µM (inactive)

**Q.** And the GI50 [29]?
**A.** 39.3 µM (inactive)

**Q.** What about the GI50 [30] of the same molecule?
**A.** 21.4 µM (inactive)

**Q.** And the GI50 [31]?
**A.** 19.1 µM (inactive)

**Q.** What about the GI50 [32] of the same molecule?
**A.** > 100 µM (inactive)

**Q.** And the GI50 [33]?
**A.** 33.3 µM (inactive)

**Q.** What about the GI50 [34] of the same molecule?
**A.** 6.62 µM (inactive)

**Q.** And the GI50 [35]?
**A.** 62.8 µM (inactive)

**Q.** And the GI50 [36]?
**A.** 34.5 µM (inactive)

**Q.** What about the GI50 [37] of the same molecule?
**A.** 32.3 µM (inactive)

**Q.** What about the GI50 [38] of the same molecule?
**A.** 25.9 µM (inactive)

**Q.** And the GI50 [39]?
**A.** 25.6 µM (inactive)

**Q.** What about the GI50 [40] of the same molecule?
**A.** 35.9 µM (inactive)

**Q.** And the GI50 [41]?
**A.** 9.38 µM (inactive)

**Q.** And the GI50 [42]?
**A.** 18.8 µM (inactive)

**Q.** What about the GI50 [43] of the same molecule?
**A.** 32.7 µM (inactive)

**Q.** What about the GI50 [44] of the same molecule?
**A.** 58.5 µM (inactive)

**Q.** What about the GI50 [45] of the same molecule?
**A.** 23.2 µM (inactive)

**Q.** What about the GI50 [46] of the same molecule?
**A.** 27.2 µM (inactive)

**Q.** And the GI50 [47]?
**A.** 16.8 µM (inactive)

**Q.** And the GI50 [48]?
**A.** 23.6 µM (inactive)

**Q.** And the GI50 [49]?
**A.** 21.7 µM (inactive)

**Q.** What about the GI50 [50] of the same molecule?
**A.** 32.7 µM (inactive)

**Q.** What about the GI50 [51] of the same molecule?
**A.** 16.7 µM (inactive)

**Q.** What about the GI50 [52] of the same molecule?
**A.** 36.4 µM (inactive)

**Q.** And the GI50 [53]?
**A.** 31.2 µM (inactive)

**Q.** What about the GI50 [54] of the same molecule?
**A.** 20.5 µM (inactive)

**Q.** And the GI50 [55]?
**A.** 39.4 µM (inactive)

**Q.** What about the GI50 [56] of the same molecule?
**A.** 4.89 µM (inactive)

**Q.** And the GI50 [57]?
**A.** 5.48 µM (inactive)

**Q.** And the GI50 [58]?
**A.** 19.6 µM (inactive)

**Q.** And the GI50 [59]?
**A.** 40.5 µM (inactive)
